± gives the expanded uncertainty stated by the source.
Assay: molar heat capacity at constant pressure
Conditions: 101.33 kPa, Small (less than 1 g) adiabatic calorimetry

CCCCn1cc[n+](C)c1.[Br-] [1-butyl-3-methylimidazolium bromide]
Conditions | molar heat capacity at constant pressure [J/K/mol]
122.75 K, Glass | 139.07 ± 0.76
123.63 K, Crystal | 131.11 ± 0.73
124.78 K, Glass | 140.32 ± 0.76
125.66 K, Crystal | 132.08 ± 0.73
126.82 K, Glass | 141.79 ± 0.77
127.7 K, Crystal | 133.1 ± 0.73
128.85 K, Glass | 143.22 ± 0.77
129.73 K, Crystal | 134.32 ± 0.74
130 K, Crystal | 134.3 ± 0.75
130.89 K, Glass | 144.53 ± 0.78
131.77 K, Crystal | 135.36 ± 0.74
132.93 K, Glass | 145.61 ± 0.78
133.82 K, Crystal | 136.37 ± 0.75
134.98 K, Glass | 147.16 ± 0.79
135.86 K, Crystal | 137.63 ± 0.75
137.02 K, Glass | 148.47 ± 0.79
137.9 K, Crystal | 138.69 ± 0.75
139.07 K, Glass | 149.68 ± 0.8
139.95 K, Crystal | 139.77 ± 0.76
140 K, Crystal | 139.7 ± 0.75
141.11 K, Glass | 150.96 ± 0.8
142 K, Crystal | 140.95 ± 0.76
143.16 K, Glass | 152.33 ± 0.81
144.05 K, Crystal | 142.17 ± 0.77
145.21 K, Glass | 153.64 ± 0.82
146.11 K, Crystal | 143.29 ± 0.77
147.27 K, Glass | 154.99 ± 0.82
148.17 K, Crystal | 144.04 ± 0.78
149.33 K, Glass | 156.22 ± 0.82
150 K, Crystal | 145.1 ± 0.75
150.23 K, Crystal | 145.16 ± 0.78
151.38 K, Glass | 157.56 ± 0.83
152.28 K, Crystal | 146.48 ± 0.79
153.44 K, Glass | 158.85 ± 0.83
154.34 K, Crystal | 147.77 ± 0.79
155.5 K, Glass | 160.15 ± 0.84
156.4 K, Crystal | 148.83 ± 0.8
157.55 K, Glass | 161.46 ± 0.85
158.47 K, Crystal | 149.86 ± 0.8
159.61 K, Glass | 162.88 ± 0.85
160 K, Crystal | 150.5 ± 0.83
160.53 K, Crystal | 151.03 ± 0.8
161.68 K, Glass | 164.21 ± 0.86
162.59 K, Crystal | 152.18 ± 0.81
163.74 K, Glass | 165.38 ± 0.86
164.66 K, Crystal | 153.33 ± 0.81
165.8 K, Glass | 166.7 ± 0.87
166.73 K, Crystal | 154.42 ± 0.82
167.87 K, Glass | 168.08 ± 0.87
168.79 K, Crystal | 155.67 ± 0.82
169.93 K, Glass | 169.45 ± 0.88
170 K, Crystal | 156 ± 0.83
170.86 K, Crystal | 156.71 ± 0.83
172 K, Glass | 170.75 ± 0.88
172.93 K, Crystal | 157.83 ± 0.83
174.07 K, Glass | 172.09 ± 0.89
175 K, Crystal | 159 ± 0.84
176.14 K, Glass | 173.39 ± 0.89
177.07 K, Crystal | 160.17 ± 0.84
178.21 K, Glass | 174.81 ± 0.9
179.15 K, Crystal | 161.41 ± 0.85
180 K, Crystal | 161.6 ± 0.83
180.29 K, Glass | 176.19 ± 0.9
181.23 K, Crystal | 162.53 ± 0.85
182.37 K, Glass | 177.61 ± 0.91
183.3 K, Crystal | 163.73 ± 0.85
184.44 K, Glass | 178.88 ± 0.92
185.38 K, Crystal | 164.89 ± 0.86
186.51 K, Glass | 180.34 ± 0.92
187.45 K, Crystal | 166.26 ± 0.87
188.59 K, Glass | 181.72 ± 0.93
189.53 K, Crystal | 167.35 ± 0.87
190 K, Crystal | 167.4 ± 0.83
190.66 K, Glass | 183.15 ± 0.93
191.61 K, Crystal | 168.45 ± 0.87
192.74 K, Glass | 184.62 ± 0.94
193.69 K, Crystal | 169.62 ± 0.88
194.82 K, Glass | 186.01 ± 0.94
195.77 K, Crystal | 170.97 ± 0.88
196.9 K, Glass | 187.63 ± 0.95
197.85 K, Crystal | 172.33 ± 0.89
198.98 K, Glass | 189.28 ± 0.96
199.93 K, Crystal | 173.55 ± 0.89
200 K, Crystal | 173.4 ± 0.92
201.07 K, Glass | 191 ± 0.96
202.01 K, Crystal | 174.87 ± 0.9
203.15 K, Glass | 192.74 ± 0.97
204.09 K, Crystal | 176.17 ± 0.9
205.24 K, Glass | 194.6 ± 0.98
206.18 K, Crystal | 177.52 ± 0.91
207.34 K, Glass | 196.57 ± 0.99
208.26 K, Crystal | 178.87 ± 0.92
209.44 K, Glass | 199.14 ± 1
210 K, Crystal | 179.9 ± 0.92
210.34 K, Crystal | 180.27 ± 0.92
211.54 K, Glass | 201.34 ± 1
212.44 K, Crystal | 181.75 ± 0.93
213.66 K, Glass | 205.71 ± 1
214.52 K, Crystal | 183.24 ± 0.93
215.75 K, Glass | 211.67 ± 1
216.61 K, Crystal | 184.62 ± 0.94
217.78 K, Glass | 223.22 ± 1.1
218.7 K, Crystal | 186.06 ± 0.94
219.71 K, Glass | 249.71 ± 1.2
220 K, Crystal | 186.6 ± 0.92
220.79 K, Crystal | 187.32 ± 0.95
222.88 K, Crystal | 188.66 ± 0.96
224.97 K, Crystal | 190.05 ± 0.96
225.62 K, Liquid | 289.04 ± 1.4
227.06 K, Crystal | 191.53 ± 0.97
227.7 K, Liquid | 289.5 ± 1.4
229.15 K, Crystal | 192.85 ± 0.97
229.79 K, Liquid | 290.01 ± 1.4
230 K, Crystal | 193.1 ± 1
231.24 K, Crystal | 194.13 ± 0.98
231.89 K, Liquid | 290.69 ± 1.4
233.34 K, Crystal | 195.6 ± 0.98
233.98 K, Liquid | 291.24 ± 1.4
235.43 K, Crystal | 196.86 ± 0.99
236.07 K, Liquid | 291.65 ± 1.4
237.53 K, Crystal | 198 ± 0.99
238.17 K, Liquid | 292.05 ± 1.4
239.63 K, Crystal | 199.44 ± 1
240 K, Crystal | 199.5 ± 1
240.26 K, Liquid | 292.64 ± 1.4
241.72 K, Crystal | 200.93 ± 1
242.35 K, Liquid | 293.21 ± 1.4
243.82 K, Crystal | 202.36 ± 1
244.44 K, Liquid | 293.89 ± 1.4
245.93 K, Crystal | 203.67 ± 1
246.54 K, Liquid | 294.81 ± 1.4
248.03 K, Crystal | 205.09 ± 1
248.64 K, Liquid | 295.35 ± 1.4
250 K, Crystal | 206.2 ± 1
250.12 K, Crystal | 206.58 ± 1
250.73 K, Liquid | 296.1 ± 1.4
252.22 K, Crystal | 208.01 ± 1
252.83 K, Liquid | 296.76 ± 1.4
254.32 K, Crystal | 209.53 ± 1
256.43 K, Crystal | 211.04 ± 1
258.53 K, Crystal | 212.45 ± 1
260 K, Crystal | 213.2 ± 1.1
260.63 K, Crystal | 213.97 ± 1.1
262.74 K, Crystal | 215.49 ± 1.1
264.84 K, Crystal | 217.16 ± 1.1
266.93 K, Crystal | 218.74 ± 1.1
269.03 K, Crystal | 220.2 ± 1.1
270 K, Crystal | 220.8 ± 1.1
271.12 K, Crystal | 222.15 ± 1.1
273.22 K, Crystal | 223.99 ± 1.1
275.33 K, Crystal | 225.35 ± 1.1
277.43 K, Crystal | 227.05 ± 1.1
279.55 K, Crystal | 228.43 ± 1.1
280 K, Crystal | 228.4 ± 1.1
281.65 K, Crystal | 230.01 ± 1.1
283.76 K, Crystal | 231.57 ± 1.1
285.86 K, Crystal | 232.75 ± 1.1
287.97 K, Crystal | 234.48 ± 1.1
290 K, Crystal | 235.8 ± 1.2
290.08 K, Crystal | 236.13 ± 1.1
292.19 K, Crystal | 237.64 ± 1.2
294.31 K, Crystal | 239.37 ± 1.2
296.42 K, Crystal | 241.14 ± 1.2
298.15 K, Crystal | 241.8 ± 1.2
298.54 K, Crystal | 243.38 ± 1.2
300 K, Crystal | 243.1 ± 1.2
300.66 K, Crystal | 245.13 ± 1.2
302.78 K, Crystal | 247.98 ± 1.2
304.91 K, Crystal | 249.78 ± 1.2
308.84 K, Crystal | 254.23 ± 1.2
310 K, Crystal | 250.4 ± 1.2
312.32 K, Crystal | 258.72 ± 1.2
314.44 K, Crystal | 261.85 ± 1.2
320 K, Crystal | 257.8 ± 1.2
330 K, Crystal | 265.1 ± 1.2
340 K, Crystal | 272.5 ± 1.3
350 K, Crystal | 279.8 ± 1.3
351.35 K, Crystal | 280.8 ± 1.3
351.35 K, Liquid | 332.6 ± 1.5
355.98 K, Liquid | 334.82 ± 1.5
359.86 K, Liquid | 336.11 ± 1.5
360 K, Liquid | 336.3 ± 1.6
362.1 K, Liquid | 338.41 ± 1.6
364.36 K, Liquid | 339.33 ± 1.6
366.64 K, Liquid | 339.84 ± 1.6
370 K, Liquid | 340.9 ± 1.6
